In US10385012B2, “Thioamides and amides for controlling animal pests” (BASF SE, priority 2013, dated 2019):

Columns and labels:
Format in all cases: in vivo
[1] = test system: boll weevil (Anthonomus grandis); assay: Boll weevil control, 24-well microtiter plates with insect diet and eggs; conditions: 120 h, egg and larval mortality after 5 days, in comparison with untreated controls
Protocol: (§1) For evaluating control of boll weevil (Anthonomus grandis) the test unit consisted of 24-well-microtiter plates containing an insect diet and 20-30 A. grandis eggs. The compounds were formulated using a solution containing 75% v/v water and 25% v/v DMSO. Different concentrations of formulated compounds were sprayed onto the insect diet at 20 μl, using a custom built micro atomizer, at two replications. After application, microtiter plates were incubated at about 23±1° C. and about 50±5% relative humidity for 5 days. Egg and larval mortality was then visually assessed.

[2] = test system: Green soldier stink bug (Nezara viridula); assay: Green soldier stink bug test on sprayed soybean pods; conditions: 120 h, 3rd instar N. viridula on soybean pods, after 5 days, in comparison with untreated controls
Protocol: The active compound is dissolved at the desired concentration in a mixture of 1:1 (vol:vol) distilled water:aceteone. Surfactant (Kinetic HV) is added at a rate of 0.01% (vol/vol). The test solution is prepared at the day of use. Soybean pods were placed in microwavable plastic cups lined with moist filter paper and inoculated with ten 3rd instar N. viridula. Using a hand atomizer, an approximately 2 ml solution is sprayed into each cup. Treated cups were kept at about 28-29° C. and relative humidity of about 50-60%. Percent mortality was recorded after 5 days.

[3] = test system: Silverleaf whitefly (Bemisia argentifolii); assay: Silverleaf whitefly test on sprayed cotton plants; conditions: 72 h, whitefly adults on cotton, 3 days after treatment, in comparison with untreated controls
Protocol: The active compounds were formulated in cyclohexanone as a 10,000 ppm solution supplied in 1.3 ml ABgene® tubes. These tubes were inserted into an automated electrostatic sprayer equipped with an atomizing nozzle and they served as stock solutions for which lower dilutions were made in 50% acetone:50% water (v/v). A nonionic surfactant (Kinetic®) was included in the solution at a volume of 0.01% (v/v). Cotton plants at the cotyledon stage (one plant per pot) were sprayed by an automated electrostatic plant sprayer equipped with an atomizing spray nozzle. The plants were dried in the sprayer fume hood and then removed from the sprayer. Each pot was placed into a plastic cup and 10 to 12 whitefly adults (approximately 3-5 days old) were introduced. The insects were collected using an aspirator and 0.6 cm, nontoxic Tygon® tubing (R-3603) connected to a barrier pipette tip. The tip, containing the collected insects, was then gently inserted into the soil containing the treated plant, allowing insects to crawl out of the tip to reach the foliage for feeding. Cups were covered with a reusable screened lid (150-micron mesh polyester screen PeCap from Tetko, Inc.). […] Mortality was assessed 3 days after treatment, compared to untreated control plants.

[4] = test system: yellow fever mosquito (Aedes aegypti); assay: whole plant or invertebrate; conditions: 48 h, larval mortality after 2 days, in comparison with untreated controls
Protocol: For evaluating control of yellow fever mosquito (Aedes aegypti) the test unit consisted of 96-well-microtiter plates containing 200 μl of tap water per well and 5-15 freshly hatched A. aegypti larvae. The compounds or mixtures were formulated using a solution containing 75% water and 25% DMSO. Different concentrations of formulated compounds or mixtures were sprayed onto the insect diet at 2.5 μl, using a custom built micro atomizer, at two replications. After application, microtiter plates were incubated at 28±1° C., 80±5% RH for 2 days. Larval mortality was then visually assessed.

[5] = test system: Southern armyworm (Spodoptera eridania); assay: Southern armyworm test on sprayed lima bean plants; conditions: 500 ppm; armyworm larvae on lima bean, 4 days after treatment; in comparison with untreated controls
Protocol: The active compounds were formulated in cyclohexanone as a 10,000 ppm solution supplied in 1.3 ml ABgene® tubes. These tubes were inserted into an automated electrostatic sprayer equipped with an atomizing nozzle and they served as stock solutions for which lower dilutions were made in 50% acetone:50% water (v/v). A nonionic surfactant (Kinetic®) was included in the solution at a volume of 0.01% (v/v). Lima bean plants (variety Sieva) were grown 2 plants to a pot and selected for treatment at the 1st true leaf stage. Test solutions were sprayed onto the foliage by an automated electro-static plant sprayer equipped with an atomizing spray nozzle. The plants were dried in the sprayer fume hood and then removed from the sprayer. Each pot was placed into perforated plastic bags with a zip closure. Ten to 11 armyworm larvae were placed into the bag and the bags zipped closed. Test plants were maintained in a growth room at 25° C. and 20-40% relative humidity for 4 days, avoiding direct exposure to fluorescent light (24 hour photoperiod) to prevent trapping of heat inside the bags. Mortality and reduced feeding were assessed 4 days after treatment, compared to untreated control plants.

[6] = test system: Mediterranean fruitfly (Ceratitis capitata); assay: Mediterranean fruitfly control, microtiter plates with insect diet and eggs; conditions: 120 h, egg and larval mortality after 5 days, in comparison with untreated controls
Protocol: as §1, with “Mediterranean fruitfly (Ceratitis capitata)” for “boll weevil (Anthonomus grandis)”, “microtiter” for “24-well-microtiter”, “50-80 C. capitata” for “20-30 A. grandis”, “5” for “20”, “28±1°” for “23±1°”, “80±5%” for “50±5%”

C#Cc1ccc(CC(C#N)(C(N)=S)c2ccccc2)cc1 (centres unmarked) [II-1, 2-cyano-3-(4-ethynylphenyl)-2-phenylpropanethioamide]
mortality at 2500 ppm [1]: ≥ 75% | mortality at 500 ppm [2]: ≥ 75% | mortality at 500 ppm [3]: ≥ 75%

C#Cc1ccc(CC(C#N)(C(=S)NC)c2ccc(F)cc2)cc1 (centres unmarked) [III-1, 2-cyano-3-(4-ethynylphenyl)-2-(4-fluorophenyl)-N-methyl-propanethioamide]
mortality at 2500 ppm [4]: ≥ 75% | mortality at 2500 ppm [1]: ≥ 75%

N#CC(Cc1ccc(C(F)(F)F)cc1)(C(N)=O)c1ccc(F)cc1 (centres unmarked) [II-2]
mortality [5]: at least 75%

C#Cc1ccc(CC(C#N)(C(=O)NC)c2ccc(F)cc2)cc1 (centres unmarked) [III-4, 2-cyano-3-(4-ethynylphenyl)-2-(4-fluorophenyl)-N-methyl-propanamide]
mortality at 2500 ppm [1]: ≥ 75% | mortality at 2500 ppm [6]: ≥ 75%
